# Experimental data: a melting point compilation (Tetko et al.; mined from patent text by program, amines drawn as free bases though some values may be those of a salt)
row,Compound,melting point
1,Clc1nc2cc3ccccc3cc2nc1Cl,239 to 242 °C
2,Nc1nc(N)c(N)c(OCC2CCCCC2)n1,154 °C
3,Cc1nc(C)c(Cn2nnnc2-c2cccc(Cl)c2Cl)s1,174 to 175 °C
4,CC(C)c1ccc2c(c1)[C@@H](NC(=O)c1ccc(F)cc1)[C@H](O)C(C)(C)O2 (relative stereo),235 to 236 °C
5,CCOC(=O)c1[nH]c2ccc(C[C@H]3COC(=O)N3)cc2c1CCN(C)C,49 to 55 °C
6,Cn1cc(C(F)(F)F)c(C(=O)O)c1Cl,197 to 198 °C
7,CCOC(=O)c1cn(C2CC2)c2c(F)c(F)c(F)c(F)c2c1=O,170 to 171 °C
8,CCC(C)CC(C)NC1=NS(=O)(=O)c2cc(Cl)ccc2N1 (stereo not drawn),> 220 °C
9,O=C(O)CNC(=O)CCCC1CCCCC1,85 to 88 °C
10,Nc1nc(N)nc(-c2cncc(Br)c2)n1,> 260 °C
11,CCOC(=O)c1cnc2c(NC(=O)c3c(Cl)cccc3Cl)cccc2c1COC(C)=O,138 to 142 °C
12,CCOC(=O)C(C)(Cc1ccc([N+](=O)[O-])cc1)C(=O)OCC,59 to 61 °C
13,CC(=C1SCSCS1)c1ccc(OCCCN2CCOCC2)cc1,95 to 98 °C
14,Cn1c2c(c3cccc(F)c31)C(=O)NCCC2,233 to 235 °C
15,CC(C)CC(NC(=O)C1CCCN1C(=O)OCc1ccccc1)OCC(=O)O (stereo not drawn),118 to 120 °C
16,O=C(O)C[C@H]1CCCCN1C(=O)C=Cc1c(-c2ccccc2)nn2ccccc12,165 to 166 °C
17,CC1(CNCc2cc3cc(NC(=O)c4ccc(OCC5CC5)cc4)ccc3[nH]2)COC1,166 to 167 °C
18,O=C1c2ccccc2C(=O)N1Cc1cnc(Cl)s1,108 to 109 °C
19,CCOc1cccc2c1c(=O)n(C)c1c(-c3noc(C4CC4)n3)ncn21,195 to 205 °C
20,O=C1NCc2cnc(Nc3ccc(N4CCCCC4CO)cc3)nc2N1C1CCCC1 (stereo not drawn),220 to 221 °C
21,CCOC(=O)CCCCC(NS(=O)(=O)c1ccc(C)cc1)c1ccc2ccccc2c1 (stereo not drawn),87 to 91 °C
22,OC(CNC1CC1)c1cccc(Cl)c1 (stereo not drawn),71.3 to 73.2 °C
23,CC1=C2OC(C)(C)OC2CC(C)(C)C1=O (stereo not drawn),79 to 80 °C
24,CN(C)CC(=O)Nc1cccc2c1C(=O)c1c(NC(=O)CN(C)C)cccc1C2=O,194 to 195 °C
25,COc1ccc(CCNC(C)=O)cc1OC1CCCC1,87 to 88 °C

row,Compound,melting point
1,CCONC(CC)=C1C(=O)CC(C(C)(C)Sc2ccc(C)cc2)CC1=O (stereo not drawn),77.5 to 79 °C
2,CCC[C@H]1CC[C@H](c2ncc(C(=O)O)cn2)CC1,184 to 186 °C
3,CC(Oc1ccc(CNc2ccc(Cl)cc2)cc1)C(=O)O (stereo not drawn),148 to 149 °C
4,COCC#Cc1ccc(C(CC2CCCC2)C(=O)O)cc1 (stereo not drawn),82 to 85 °C
5,CCOP(=O)(CCNC1CCN(S(=O)(=O)c2ccc(Nc3nccc(Nc4ccc(F)cc4)n3)cc2)CC1)OCC,195 °C
6,CCOC(=O)CN1CCC(CNc2ccc(Cl)cc2C(=O)Nc2ccc(Cl)cn2)CC1,61 to 63 °C
7,COc1cc(OC)nc(NC(=O)NS(=O)(=O)c2ccccc2C2CO2)n1 (stereo not drawn),177 to 179 °C
8,CC12CCC(=O)N1CCCN2C(=O)C(Cl)Cl (stereo not drawn),144 to 147 °C
9,CCCn1nc2c(N)nc3ccccc3c2c1CC(C)(C)NC(=O)c1ccc(F)cc1,168 to 169 °C
10,Cc1ccc(-c2n[nH]c(N)c2C#N)cc1,173 to 178 °C
11,CC1(C)Cc2c(ccc3c2C(c2cccc(-c4ccc(C(=O)O)cc4)c2)=NCC3(C)C)O1,286 to 291 °C
12,CCOC(=O)c1c(NCCCC(=O)c2ccccc2)c2c(Cl)cc(Cl)cc2n1C(=O)OC(C)(C)C,110 to 111 °C
13,COc1cc(C=O)c(OC)cc1Cl,109 °C
14,Cn1c(-c2nnc(N)s2)cnc1[N+](=O)[O-],263 to 265 °C
15,O=C(NCc1ccccn1)c1[nH]c2ccc(Cl)cc2c1S(=O)(=O)c1ccccc1,250 to 251 °C
16,CN(CCS(C)(=O)=O)C1CCN(S(=O)(=O)c2ccc(Nc3nccc(-c4ccc(F)cc4)n3)cc2)CC1,166 °C
17,CCCCCCCNC(=O)Nc1ccc([N+](=O)[O-])cc1C(=O)NC1CCN(C(c2ccccc2)c2ccccc2)CC1,165 to 166 °C
18,Oc1ccc(-c2cnc3cnc(-c4ccccc4O)nc3c2)cc1,> 268 °C
19,O=S(=O)(c1ccc(Cl)cc1)c1ccc(Cl)s1,108 °C
20,Cc1cccc(-c2cc(C(=O)NCCCCCCCc3ccccc3)cc(-c3cccc(C)c3)c2OCC(=O)O)c1,58 to 62 °C
21,CCc1cn2c(n1)Cc1cc3c(cc1C(c1ccc(N)cc1)=N2)OCO3,192 to 194 °C
22,CC(=O)N[C@@H](CO)C(=O)NCCO[N+](=O)[O-],91 to 93 °C
23,CCOC(=O)P(=O)(O)C(=O)OCC,150 to 155 °C
24,COC(=O)COc1ccc(OCC2CCN(c3ccncc3)CC2)cc1,127 to 129 °C
25,CN1C(=O)C2(COc3cc4c(cc32)OCCO4)c2c1cccc2-n1ccccc1=O (stereo not drawn),212 to 214 °C

row,Compound,melting point
1,O=C(N1CCOCC1)n1nnc2cc(Cl)c(Cl)cc21,145 °C
2,Cc1nnc2n1-c1sc(C(C)OC(=O)C=Cc3ccccc3)cc1C(c1ccccc1Cl)=NC2 (stereo not drawn),122 to 125 °C
3,CS(=O)(=O)c1ccc(-c2[nH]c3ccccc3c2-c2ccc(F)cc2)cc1,224 to 226 °C
4,O=C1c2ccc([N+](=O)[O-])cc2C2(c3ccccc3)NCCN12 (stereo not drawn),203 °C
5,Cc1ccc(C(=O)CCCl)cc1,77.5 to 78.5 °C
6,CCOc1ccc(C(=O)CCC(=O)Nc2sc(-c3ccccc3)nc2-c2ccccc2)cc1,169 to 170 °C
7,CNc1nc(NCc2ccc(NC(=O)C3CCN(Cc4ccccc4)CC3)cc2)c2ccc(C)cc2n1,128 °C
8,CCNc1cccc(-c2ccnc3c(C(=O)c4ccco4)cnn23)c1,142 to 143 °C
9,CC(CSC(=O)c1ccccc1)C(=O)N1c2ccccc2CC1C(=O)O (stereo not drawn),116 to 117 °C
10,CN1C(=O)C(C)(Cc2ccccc2)N(C)C(=O)C1=Cc1cccnc1C#N (stereo not drawn),163 °C
11,CCCCn1c(=O)cc(-c2ccc(NCCO)cc2)[nH]c1=O,207 to 208 °C
12,CCOC(=O)c1cc(=O)c2c(OCC(O)COc3ccc(C#N)cc3)cccc2o1 (stereo not drawn),137 to 139 °C
13,O=[N+]([O-])c1ccc(CCS(=O)(=O)NCc2ccccc2)cc1,125 to 127 °C
14,COC(=O)CNS(=O)(=O)c1ccc(CCN2CC=C(c3c[nH]c(-c4ccc(F)cc4)c3-c3ccncc3)CC2)cc1,220 to 223 °C
15,CNC(=O)C(O)C(Oc1ccccc1[N+](=O)[O-])c1ccccc1 (stereo not drawn),162 to 163 °C
16,CCOC(=O)CN(CCOc1cc2cc3c(Nc4cc(OC)c(Cl)cc4C)c(C#N)cnc3cc2cc1OCC)CC(=O)OCC,70 to 71 °C
17,"COc1cc2c(cc1OC(C)=O)C1Cc3c(Cl)cc(OC)c(OC(C)=O)c3CN1CC2 (single isomer, unassigned; (-))",202 to 203 °C
18,O=C(c1cccs1)c1cnn2c(-c3ccc(Cl)nc3)ccnc12,145 to 148 °C
19,O=C(O)C#Cc1ccccn1,130 °C
20,CCN(CC)CCOc1ccc2c3c(cccc13)C(=O)c1c-2oc2ccccc12,115 to 118 °C
21,CCc1noc(-c2ncn(-c3cccc(Cl)c3)c2COC)n1,125 to 126 °C
22,CC(=O)NC[C@H]1CN(c2ccc(N3CCC4(CC3)COCO4)cc2)C(=O)O1,134 to 138 °C
23,Cn1ccc2ncnc(Oc3ccc(NC(=O)Nc4cc(C(F)(F)F)ccc4F)c(Cl)c3)c21,193 to 197 °C
24,CC(=O)c1nc2ccc(OCC(F)(F)C(F)(F)C(F)(F)C(F)F)cc2cc1O,69 to 71 °C
25,CC12CCC(OC(=O)c3ccc(N)cc3)CC1=CCC1C2CCC2(C)C(=NO)CCC12 (stereo not drawn),165 to 168 °C

row,Compound,melting point
1,CCCN1N=C2C(=Cc3cccc(C(F)(F)F)c3)CSCC2C1c1cccc(C(F)(F)F)c1 (stereo not drawn),90 to 93.5 °C
2,OCCN1c2ccccc2Oc2ccccc21,113 to 115 °C
3,Cc1ccc(-c2c(NS(=O)(=O)c3ccc(C(C)(C)C)cc3)nc(NCCOC3CCCCO3)nc2OCCO)cc1 (stereo not drawn),113 to 116 °C
4,CC1(C)OCc2cc(Cl)cc(C(=O)c3cn(C(c4ccccc4)(c4ccccc4)c4ccccc4)cn3)c2O1,200 to 205 °C
5,COCC[C@H]1CN(C2=Nc3ccccc3Nc3ccc(C(F)(F)F)cc32)CCN1,71 to 82 °C
6,COc1cc(C)c(C)cc1NC(=O)N1CCN(c2ccccc2)CC1,143 to 144 °C
7,CCc1cccc2c1C(=O)N(Cn1nnn(-c3ccccc3)c1=S)S2(=O)=O,127 to 129 °C
8,Oc1ccc(-c2nnc(CSCCOc3ccccc3)n2Cc2ccccc2)cc1,64 to 66 °C
9,N#CCCN1CCN(Cc2ccc3c(c2)-c2[nH]nc(-c4ccsc4)c2C3)CC1,156 to 157 °C
10,N=C(NCc1ccco1)NN=Cc1c(Cl)cccc1Cl,134 to 136 °C
11,CC(C)(C)C(=O)Nc1ccc2oc3c(c2c1)CCCCCC3,189 to 190 °C
12,COc1cccc(Oc2c(NS(=O)(=O)c3ccc(C(C)(C)C)cc3)ncnc2SCCOc2ncccn2)c1,168 °C
13,N#CC1(O)COc2ccccc2OC1,108 to 110 °C
14,Cn1nnc2cc(C(=O)NC3CCCn4c3nc(-c3ccncc3)cc4=O)ccc21 (racemic),267 to 269 °C
15,COC(=O)c1nc(OC)n2c1CN=C(c1ccccc1Cl)c1cc(Cl)ccc1-2,155 to 160 °C
16,Cc1cc(C)c2c(c1Br)CCC2=O,103 °C
17,Cc1c(C#N)c(N)n(-c2c(Br)cc(C(F)(F)F)cc2Br)c1C,158 to 161 °C
18,COc1cc(C(=O)Nc2c(C)cccc2C)nn1C,144 °C
19,COc1ccc(-c2nnc(O)nc2-c2ccc(OC)cc2)cc1,238 to 242 °C
20,CCOC(=O)C(C)(C)Oc1ccc(OCCn2c(=O)sc3cc(C(=O)c4cccc(Cl)c4)ccc32)cc1,125 to 126 °C
21,Cc1ccn(-c2ccc(Oc3ccc(F)cc3)cc2)n1,80 to 81 °C
22,CC(=O)c1cnccc1NC(=O)C(C)(C)C,95 °C
23,Nc1cc(Oc2ccc(-c3ccc(Oc4cc(N)cc(C(F)(F)F)c4)cc3)cc2)cc(C(F)(F)F)c1,130 to 133 °C
